Earlier results, collected in patent US8277782B2, “Topical oral care compositions comprising host response modulating agents” (The Procter & Gamble Company, priority 2000, dated 2012).

Tested on: alveolar bone
Conditions: non steroidal anti-inflammatory drugs, cyclo-oxygenase inhibitors; prior knowledge

Structure (SMILES)	resorption of alveolar bone
CC(C(=O)O)c1ccc(-c2ccccc2)c(F)c1 (centres unmarked) [flurbiprofen]	markedly reduce
COc1ccc2c(c1)c(CC(=O)O)c(C)n2C(=O)c1ccc(Cl)cc1 [indomethacin]	markedly reduce
